Three molecules from ChEMBL document CHEMBL3132775, “Design, synthesis and biochemical investigation, by in vitro luciferase reporter system, of peptide nucleic acids as new inhibitors of miR-509-3p involved in the regulation of cystic fibrosis disease-gene expression” (Medchemcomm, 2014) can be followed below.

Calls of active or inactive are those of the source. The calls are words filed in the database; no cut-off is given here.

The test system of assay [1] is A549. As to the kind of experiment: Inhibition of miR-509-3p (unknown origin) transfected in human A549 cells assessed as luciferase activity at 50 uM by dual luciferase reporter gene assay. In kind it is cell-based. On the set-up: scale not given: the % may be the effect or the level left.
Assay [2] is described as follows: Binding affinity to miR-509-3p (unknown origin) assessed as heteroduplex formation by CD spectra analysis.
The test system of assay [3] is A549. As to the kind of experiment: Inhibition of miR-509-3p (unknown origin) transfected in human A549 cells at 100 uM after 12 hrs by fluorescence microscopy. The format is cell-based.
Assay [4] can be described thus: Binding affinity to miR-509-3p (unknown origin) assessed as apparent melting temperature by UV-spectrophotometeric analysis.
Assay [5] can be described thus: Binding affinity to miR-509-3p (unknown origin) assessed as heteroduplex formation at 1:15 and 1:5 ratio after 2 hrs by EMSA.
Assay [6] has as its system A549. The assay can be described thus: Inhibition of miR-509-3p (unknown origin) transfected in human A549 cells at 10 to 50 uM by dual luciferase reporter gene assay. In kind it is cell-based. For orientation: A reporter such as luciferase makes a cellular process visible.
Assay [7] deals with A549. As to the kind of experiment: Inhibition of miR-509-3p (unknown origin) transfected in human A549 cells by dual luciferase reporter gene assay. In kind it is cell-based.

Regarding `Cc1cn(CC(=O)N(CCNC(=O)CN(CCNC(=O)CN(CCNC(=O)CN(CCNC(=O)CN(CCNC(=O)CN(CCNC(=O)CN(CCNC(=O)COCCOCCNC(=S)Nc2ccc(C3c4ccc(O)cc4OC4=CC(=O)C=CC43)c(C(=O)O)c2)C(=O)Cn2ccc(N)nc2=O)C(=O)Cn2cnc3c(N)ncnc32)C(=O)Cn2ccc(N)nc2=O)C(=O)Cn2cnc3c(=O)[nH]c(N)nc32)C(=O)Cn2cnc3c(=O)[nH]c(N)nc32)C(=O)Cn2cnc3c(N)ncnc32)CC(=O)NCCN(CC(=O)NCCN(CC(=O)NCCN(CC(=O)NCCN(CC(=O)NCCN(CC(=O)NCCN(CC(=O)NCCN(CC(=O)NCC(=O)NC(COP(=O)(O)O)C(=O)NC(COP(=O)(O)O)C(=O)NCC(N)=O)C(=O)Cn2cc(C)c(=O)[nH]c2=O)C(=O)Cn2cnc3c(=O)[nH]c(N)nc32)C(=O)Cn2ccc(N)nc2=O)C(=O)Cn2ccc(N)nc2=O)C(=O)Cn2cnc3c(=O)[nH]c(N)nc32)C(=O)Cn2cnc3c(N)ncnc32)C(=O)Cn2cnc3c(=O)[nH]c(N)nc32)c(=O)[nH]c1=O` (stereo unspecified), the Activity in the assay with A549 [1] was less than 40%.

Regarding `Cc1cn(CC(=O)N(CCNC(=O)CN(CCNC(=O)CN(CCNC(=O)CN(CCNC(=O)CN(CCNC(=O)CN(CCNC(=O)CN(CCNC(=O)CN(CCNC(=O)CN(CCNC(=O)CN(CCNC(=O)CN(CCNC(=O)CN(CCNC(=O)COCCOCCNC(=S)Nc2ccc(C3c4ccc(O)cc4Oc4cc(O)ccc43)c(C(=O)O)c2)C(=O)Cn2cnc3c(N)ncnc32)C(=O)Cn2cnc3c(=O)[nH]c(N)nc32)C(=O)Cn2cnc3c(N)ncnc32)C(=O)Cn2ccc(N)nc2=O)C(=O)Cn2cnc3c(=O)[nH]c(N)nc32)C(=O)Cn2cc(C)c(=O)[nH]c2=O)C(=O)Cn2cnc3c(N)ncnc32)C(=O)Cn2ccc(N)nc2=O)C(=O)Cn2ccc(N)nc2=O)C(=O)Cn2cnc3c(N)ncnc32)C(=O)Cn2cnc3c(N)ncnc32)CC(=O)NCCN(CC(=O)NCCN(CC(=O)N[C@@H](CCCCN)C(=O)N[C@@H](CCCCN)C(N)=O)C(=O)Cn2cnc3c(N)ncnc32)C(=O)Cn2ccc(N)nc2=O)c(=O)[nH]c1=O`, the outcome in assay [2] and in assay [5] was Active. In addition, the inhibition result in the assay with A549 [3] was “inactive”. In addition, the Tm(app) in assay [4] was found to be 80 °C. The inhibition entry in the assay with A549 [6] was “Active”.

With `Cc1cn(CC(=O)N(CCNC(=O)CN(CCNC(=O)CN(CCNC(=O)CN(CCNC(=O)CN(CCNC(=O)CN(CCNC(=O)CN(CCNC(=O)CN(CCNC(=O)CN(CCNC(=O)CN(CCNC(=O)CN(CCNC(=O)CN(CCNC(=O)COCCOCCNC(=S)Nc2ccc(C3c4ccc(O)cc4OC4=CC(=O)C=CC43)c(C(=O)O)c2)C(=O)Cn2cnc3c(N)ncnc32)C(=O)Cn2cnc3c(=O)[nH]c(N)nc32)C(=O)Cn2cnc3c(N)ncnc32)C(=O)Cn2ccc(N)nc2=O)C(=O)Cn2cnc3c(=O)[nH]c(N)nc32)C(=O)Cn2cc(C)c(=O)[nH]c2=O)C(=O)Cn2cnc3c(N)ncnc32)C(=O)Cn2ccc(N)nc2=O)C(=O)Cn2ccc(N)nc2=O)C(=O)Cn2cnc3c(N)ncnc32)C(=O)Cn2cnc3c(N)ncnc32)CC(=O)NCCN(CC(=O)NCCN(CC(=O)NCC(=O)NC(COP(=O)(O)O)C(=O)NC(COP(=O)(O)O)C(=O)NCC(N)=O)C(=O)Cn2cnc3c(N)ncnc32)C(=O)Cn2ccc(N)nc2=O)c(=O)[nH]c1=O` (stereo unspecified), the outcome in assay [2] and in assay [5] was Active. For the same molecule, the inhibition result in the assay with A549 [3] is “inactive”. For the same molecule, the Tm(app) in assay [4] is 74 °C. In addition, the inhibition result in the assay on A549 [7] is “Dose-dependent effect”.
